# Assay results published in article PMC6934184, “Selective DNA-PKcs inhibition extends the therapeutic index of localized radiotherapy and chemotherapy” (The Journal of Clinical Investigation, 2019).
# Molecular target: T1, CDK5 (Inactive) (Homo sapiens, UniProt Q00535)
# T1 construct: purchased Thermo Fisher Scientific (Life Technologies) SelectScreen
# Assay: SelectScreen LanthaScreen
# Type: binding
# Settings: read-out: % displacement
# Outline: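 SelectScreen broad panel; activity (Z'LYTE, Adapta) plus binding formats. ATP: Km app for CSF1R Z'LYTE; 10 for CAMK1 Adapta. Readout = % per kinase.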
# T1 sequence (Q00535 whole entry): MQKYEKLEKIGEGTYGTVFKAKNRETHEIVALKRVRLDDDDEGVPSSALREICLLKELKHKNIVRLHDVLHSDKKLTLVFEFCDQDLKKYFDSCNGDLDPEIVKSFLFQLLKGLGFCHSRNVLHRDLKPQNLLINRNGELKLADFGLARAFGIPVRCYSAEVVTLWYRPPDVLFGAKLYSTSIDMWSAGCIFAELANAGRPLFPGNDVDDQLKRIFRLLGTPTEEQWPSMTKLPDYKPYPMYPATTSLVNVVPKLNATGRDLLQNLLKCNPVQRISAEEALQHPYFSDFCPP
structure (smiles),measurement,value
CN(C(=O)CN1CCOCC1)c1ccc2sc3c(-c4cccc5c(=O)cc(N6CC7CCC(C6)O7)oc45)cccc3c2c1 [NU5455],inhibition at 1 µM,-2.1%
